According to patent publication US10912780B2, “Heterocyclic compounds useful as anti-bacterial agents and method for production thereof” (Bugworks Research, Inc., priority 2017, dated 2021):
In brackets after ≈: the same amount, converted by molar mass. Several values for one entry are separate records, joined by “and”; a condition that tells them apart may be missing. Identical values can stand only once.

Experiments:
[1] = IV formulation solubility; assay type: physicochemical; conditions: 10% L-ascorbic acid in MilliQ water (IV formulation), aqueous with cosolvent or surfactant or cyclodextrin, IV formulation: 10% L-Ascorbic acid, 1N NaOH for pH adjustment, read-out: Solubility in 10% L-ascorbic acid in fresh MilliQ water(v/v), Final
Method: Procedure: Weighed appropriate amount of the Example 15 to be tested and dissolved in 1 ml of the 10% ascorbic acid solution. (Vortex for a few seconds if the compound doesn't dissolve instantly). Sonicated the compound solution at room temperature for 5 minutes using a bath sonicator to obtain a visually clear solution. […]

[2] = test system: K. pneumoniae [ATCC13883]; test: Neutropenic thigh infection model in rat; assay type: in vivo; conditions: for Log 10 CFU/g thigh: individual animals
Method: Example 15 was tested in rat thigh infection model following intravenous infusion of compound at doses of 100 mg/kg once, 30 mg/kg once daily over a period of 1 hr to assess its efficacy. This study was performed following all ethical practices as laid down in the guidelines for animal care (Registration number No. 1852/PO/Rc/S/16/CPCSEA). The study was approved by the Institutional Animals Ethics Committee (IAEC) of the test facility. The formulation used was 10% of L-ascorbic acid in fresh MilliQ water (w/v) with pH adjusted to ˜4.0 with 1N NaOH. On Day −4 (4 days prior to the desired date of infection), each rat was dosed with a single intra-peritoneal injection of cyclophosphamide equivalent to 150 mg/kg, and returned to its cage. On Day−1 (a day prior to infection) each rat received a dose equivalent to 100 mg/kg of Cyclophosphamide. This procedure ensured that animals will be neutropenic on day 0. […] The inoculum was serially diluted ten-fold in sterile CSDB broth and 0.05 ml of six dilutions were plated onto CSDA agar plates to determine the viable count (CFU/ml) of inoculum. All animals were divided into different groups as specified in the experimental design for each microorganism. All infections were conducted in a biological safety cabinet, with appropriate personnel protection. […] A gentle shaking/mixing of inoculum between two animals was followed for uniform distribution.
Two hours post infection, animals in groups 4, 5 and 6 were administered intravenously with example 15, as a constant rate infusion (duration of infusion 1 h), under Ketamine 60 mg/kg IP+Xylazine 10 mg/kg IP anesthesia, at a dose volume of 10 ml/kg, at the rate of 0.16 ml/min. The dose levels of Example 15 were 10, 30 and 100 mg/kg. […] The total duration of the study was 10 h.
Animals were sacrificed 10 hr post infection and thigh tissues were harvested to enumerate the bacterial CFU count. Thigh muscles were aseptically excised, weighed, and placed into 1 ml of sterile CSDB broth, and homogenized (Omni Tip (220 V hand held)). Serial ten-fold dilutions of the thigh homogenates were prepared in sterile lactose broth and 0.05 mL of four dilutions for each thigh was plated onto CSDA agar plates. Bacterial colonies were enumerated following overnight incubation at […]. Bacterial densities were estimated as Log 10 CFU/gram thigh. The Mean±SD Log 10 CFU/gram thigh was estimated in each group. Significant differences between group means and control will be analyzed by One way ANOVA, followed by a Dunnett's multiple comparison test, using Graphpad Prism at 95% confidence levels. A P value of <0.05 was considered as significant.

[3] = test system: K. pneumoniae [ATCC13883]; test: Neutropenic thigh infection model in rat; assay type: in vivo
[4] = test system: Staphylococcus aureus ATCC 29213; test: Minimum Inhibitory Concentration (MIC) in LB media; assay type: cell-based; conditions: Staphylococcus aureus, ATCC29213, read-out: Minimum Inhibitory Concentration S. aureus ATCC 29213
How it was run: (§1)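 Broth microdilution in LB using cultures grown to OD600 0.8 to 1; compounds tested as twofold dilutions from a 4 mg/ml DMSO stock. Plates incubated overnight at 37° C., growth read by absorbance at 600 nm to give MIC.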

[5] = test system: Klebsiella pneumoniae ATCC 13883; test: Minimum Inhibitory Concentration (MIC) in LB media; assay type: cell-based; conditions: Klebsiella pneumoniae, ATCC13883, read-out: Minimum Inhibitory Concentration K. pneumoniae ATCC 13883
How it was run: as §1

[6] = test system: Pseudomonas aeruginosa ATCC 27853; test: Minimum Inhibitory Concentration (MIC) in LB media; assay type: cell-based; conditions: Pseudomonas aeruginosa, ATCC27853, read-out: Minimum Inhibitory Concentration P. aeruginosa ATCC 27853
How it was run: as §1

[7] = test system: Enterococcus faecalis ATCC 29212; test: Minimum Inhibitory Concentration (MIC) in LB media; assay type: cell-based; conditions: Enterococcus faecalis, ATCC29212, read-out: Minimum Inhibitory Concentration E. faecalis ATCC 29212
How it was run: as §1

[8] = test system: Escherichia coli ATCC 25922; test: Minimum Inhibitory Concentration (MIC) in LB media; assay type: cell-based; conditions: Escherichia coli, ATCC25922, read-out: Minimum Inhibitory Concentration E. coli ATCC 25922
How it was run: as §1

[9] = test system: P. aeruginosa clinical strains; test: Antibacterial susceptibility studies (MIC50 and MIC90) with clinical strains, CLSI guidelines; assay type: cell-based
[10] = 10 mg/kg, i.v., 1 h infusion, neutropenic rat, 10 hr post infection
[11] = 30 mg/kg, i.v., 1 h infusion, neutropenic rat, 10 hr post infection
[12] = 3 mg/kg, i.v., 1 h infusion, neutropenic rat, 10 hr post infection

In the case of `Cn1c(=O)ccc2ccc(F)c(CCNC[C@H]3CN(c4cnc5c(n4)NC(=O)CO5)C(=O)O3)c21` [Example 15, (S)-6-(5-(((2-(7-fluoro-1-methyl-2-oxo-1,2-dihydroquinolin-8-yl)ethyl)amino)methyl)-2-oxooxazolidin-3-yl)-2H-pyrazino[2,3-b][1,4]oxazin-3(4H)-one], the solubility at 5 min [1] is reported as 25 mg/mL (≈ 53400 µM), the “MEAN ± SD (Log 10 CFU/g thigh)” value [2, 10] is reported as 2.91 ± 0.24 Log 10 CFU/g thigh and the “MEAN ± SD (Log 10 CFU/g thigh)” value [2, 11] is reported as 2.22 ± 0.50 Log 10 CFU/g thigh. For the same compound, the “Mean Log10CFU/g thigh reduction (wrt 2 h PI control: 4.72 Log10CFU/g thigh)” value (“Mean Log10CFU/g thigh reduction” for short) [2, 11] was 2.50 Log10CFU/g thigh, the “Log 10 CFU/g thigh” value [2, 10] was 3.18 Log 10 CFU/g thigh and 2.85 Log 10 CFU/g thigh and 2.71 Log 10 CFU/g thigh and the “Log 10 CFU/g thigh” value [2, 11] was 1.92 Log 10 CFU/g thigh and 1.94 Log 10 CFU/g thigh and 2.8 Log 10 CFU/g thigh. For the same compound, the “efficacy with respect to 2 h Post Infection (PI) control (in words)” value ([2]; rat thigh model, 10 and 30 mg/kg) was “significant dose dependent efficacy”, the “efficacy versus standard drug (in words)” value ([2]; rat thigh model, similar dose (10 mg/kg)) was “comparable to standard drug ciprofloxacin” and the “MEAN ± SD (Log 10 CFU/g thigh)” value [3, 12] was 4.10 ± 0.46 Log 10 CFU/g thigh. The “Mean Log10CFU/g thigh reduction” value [3, 12] was 0.62 Log10CFU/g thigh, the “Mean Log10CFU/g thigh reduction” value [3, 10] was 1.81 Log10CFU/g thigh and the “Log 10 CFU/g thigh” value ([3]; individual animals, 3 mg/kg, i.v., 1 h infusion, neutropenic rat, 10 hr post infection) was 4.1 Log 10 CFU/g thigh and 4.56 Log 10 CFU/g thigh and 3.65 Log 10 CFU/g thigh. The “efficacy compared to the 2 h PI control (in words)” value ([3]; rat thigh model, 3 mg/kg) was “bacteriostatic”, the MIC [4] was ≤ 0.015 µg/mL and the MIC [5] was 0.03 µg/mL (≈ 0.064 µM). It also gave an MIC [6] of 0.25 µg/mL (≈ 0.534 µM), an MIC [7] of 0.06 µg/mL (≈ 0.128 µM) and an MIC [8] of 0.03 µg/mL (≈ 0.064 µM). For the same compound, the MIC ATCC27853 ([9]; P. aeruginosa reference strain ATCC27853, no unit in this line) was 0.25 µg/mL (≈ 0.534 µM), the MIC50 ([9]; Pseudomonas aeruginosa) was 0.5 µg/mL (≈ 1.07 µM) and the MIC90 ([9]; Pseudomonas aeruginosa) was 1 µg/mL (≈ 2.13 µM). It also gave a Minimum ([9]; lowest MIC among P. aeruginosa clinical strains (215 strains; Example 15: 176), no unit in this line) of 0.03.
